# Laboratory results from patent publication US20130210907A1, “METHOD FOR PREVENTING OR TREATING ENTEROCHROMAFFIN CELL HYPERPLASIA-RELATED DISEASES BY QUERCETIN ADMINISTRATION” (HONG KONG BAPTIST UNIVERSITY, priority 2012, published 2013).
# Tests used:
# PI-IBS rats = test: EMG recording: visceral motor response to graded colorectal distension (CRD); format: in vivo, rat
# Procedure: Sprague-Dawley male rats (Laboratory Animal Services Centre, The Chinese University of Hong Kong) aged 6 weeks with body weight around 220 g are used to develop PI-IBS model. Briefly, rats are fasted for 24 h, and deeply anesthetized with chloral hydrate (350 mg.kg^−1, i.p.). After induction of colitis by 2,4,6-trinitrobenzenesulfonic acid solution (TNBS, 5 mg/0.8 ml/rat, in 50% ethanol, 8 cm from anus) administration, the rats are allowed to recover for at least 4 weeks before use. The control rats are similarly administered with 0.8 ml saline instead of TNBS. Only the rats that have completely recovered from the initial inflammation and acquired visceral hypersensitivity are used as the PI-IBS rats.
# 6 groups of 12 rats are tested. Normal rats (Group 1) are treated with water. PI-IBS rats are randomly divided into 5 groups and orally treated with water (Group 2), Doxantrazole (mast cell stabilizer, 30 mg/kg/d, Group 3), and Quercetin (Group 4-6) at the dose of 5, 10, and 20 mg/kg/d, respectively. After 2 weeks daily drug administration, 5 rats in each group are used to measure pain threshold pressure by abdominal withdrawal reflex (AWR) test, and the remaining […] is used for electromyography (EMG) recording.
# AWR test is performed as previously described in Al-Chaer E D, Kawasaki M, Pasricha P J. A new model of chronic visceral hypersensitivity in adult rats induced by colon irritation during postnatal development. Gastroenterology. 2000 November; 119(5):1276-85. Briefly, rats are lightly anesthetized with ether; a latex balloon is inserted into the descending colon. Rats are then allowed to recover for about 1 h. The tube of the balloon is connected via a Y-connector to a sphygmomanometer and colorectal distension is applied in increments of 5 mmHg until a visible contraction of the abdominal wall is observed by an investigator blinded to the treatment. The pain threshold pressure is defined as the intensity of colorectal distension (CRD) that elicited an observable AWR, i.e. a sudden and persistent abdominal muscle contraction with abdomen lift off the platform. The pain threshold pressure of all groups is recorded and repeated five times with intervals of at least 5 minutes for recovery. EMG recording are conducted as previously described in Tammpere A, Brusberg M, Axenborg J, Hirsch I, Larsson H, Lindstrom E. Evaluation of pseudo-affective responses to noxious colorectal distension in rats by manometric recordings. Pain. 2005 August; 116(3):220-6 and Li Z, Zhang X J, Xu H X, Sung J J, Bian Z X. Intracolonical administration of protease-activated receptor-2 agonists produced visceral hyperalgesia by up-regulating serotonin in the colon of rats. Eur J. Pharmacol. 2009 Mar. 15; 606(1-3):199-204. Firstly, a surgical operation is made to implant the electrodes into the left external abdominal oblique muscles 7 days before EMG recording. After the last drug administration, a flexible latex balloon is inserted into the rat descending colon, and the rats are allowed to accommodate for 1 h. CRD is initiated, and the EMG signal is amplified and filtered by Power Lab System. Graded colorectal distension (20, 40, 60, and 80 mmHg; 20 s duration; 2 min inter-stimulus interval) is carried out for total three cycles to each rat. The changes of area under the curve (AUC) are calculated using that during 20 s distension period over the 20 s baseline.
# normal rats = test: Colonic 5-HT content in normal rats; format: in vivo, rat; conditions: 10 mg/kg i.g., 14 days
# Procedure: 5-HT content in the colon tissue is assayed based on our previously reported procedure in Qi S D, Tian S L, Xu H X, Sung J J, Bian Z X. Quantification of luminally released serotonin in rat proximal colon by capillary electrophoresis with laser-induced fluorescence detection. Anal Bioanal Chem. 2009 April; 393(8):2059-66. Briefly, the colon segment is homogenized in 15% iced trichloroacetic acid; for 2 min and stored at 4° C. for 2 h. After centrifuge at 10,000 G for 15 min, the supernatant of each sample is filtered using 0.22 μm filters and extracted with diethyl ether for five times to remove the trichloroacetic acid. The prepared samples are added to derivatization solution (150 mM sodium tetraborate, 25% acetonitrile, 2 mM CFSE) and incubated for […] in dark at room temperature. The 5-HT content is analyzed by capillary electrophoresis with laser-induced fluorescence detection and expressed as nanogram per milligram (wet weight of tissue).
# To identify whether the effects of Quercerin in PI-IBS rats are specific, pain threshold pressure, colonic EC cell number and 5-HT content are further evaluated in normal rats treated with Quercetin. […] After the final drug administration, pain threshold pressure, colonic EC cell density and 5-HT content are evaluated and the methods used here are as same as that shown in above experiments.
# QGP-1 cells = test: Cell viability (MTT assay); format: cell-based; conditions: Homo sapiens
# Procedure: To investigate the underlying mechanisms of Quercein on EC cell hyperplasia, a EC cell model, QGP-1 cell line is used as EC cell model. Human pancreatic carcinoma QGP-1 cells (JCRB0183, HSRRB, Japan) are cultured in RPMI 1640 supplemented with 10% fetal bovine serum, 100 IU/ml penicillin, and 100 μg/ml streptomycin in a humidified atmosphere of 95% air and 5% CO2 at 37° C. Cells are passaged using 0.025% trypsin and 0.01% EDTA. Cells are trypsinized and seeded in 96-well culture dishes at a density of 5,000-8,000 cells/well and cultured for 24 h or 48 h in the presence of Quercetin (0-100 μM, 0.01% DMSO).
# 3-(4,5-dimethylthiazol-2yl-)-2,5-diphenyl tetrazolium bromide (MTT) is used to evaluate cell viability. In this assay, cells are seeded in 96-well dishes and cultured for […] in the presence of Quercetin. Subsequently, the culture medium is replaced with 100 μl/well fresh medium containing 0.5 mg/ml MTT, and the cells are further incubated for 4 h at 37° C. The reaction is stopped by adding 100 μl/well 10% SDS in 0.1 M HCl, the absorbance of the plates is read at 570 nm The percent of cell survival is calculated by comparing the average absorbance of the Quercetin treated cells with the corresponding absorbance of the DMSO treated cells. All doses are tested in triplicates and repeated for at least three times.
smiles,measurement,setting,value
"O=c1c(O)c(-c2ccc(O)c(O)c2)oc2cc(O)cc(O)c12 [Quercetin, 2-(3,4-dihydroxyphenyl)-3,5,7-trihydroxy-4H-chromen-4-one]",AUC value under graded distension pressures (EMG),"PI-IBS rats; 5 mg/kg i.g., 20 mmHg",161.22 ± 41.53
same,AUC value under graded distension pressures (EMG),"PI-IBS rats; 5 mg/kg i.g., 40 mmHg",463.55 ± 12.42
same,AUC value under graded distension pressures (EMG),"PI-IBS rats; 5 mg/kg i.g., 60 mmHg",586.42 ± 56.68
same,AUC value under graded distension pressures (EMG),"PI-IBS rats; 5 mg/kg i.g., 80 mmHg",906.84 ± 41.08
same,AUC value under graded distension pressures (EMG),"PI-IBS rats; 10 mg/kg i.g., 20 mmHg",124.61 ± 67.68
same,AUC value under graded distension pressures (EMG),"PI-IBS rats; 10 mg/kg i.g., 40 mmHg",386.85 ± 65.68
same,AUC value under graded distension pressures (EMG),"PI-IBS rats; 10 mg/kg i.g., 60 mmHg",530.98 ± 21.08
same,AUC value under graded distension pressures (EMG),"PI-IBS rats; 10 mg/kg i.g., 80 mmHg",842.34 ± 62.92
same,AUC value under graded distension pressures (EMG),"PI-IBS rats; 20 mg/kg i.g., 20 mmHg",88.28 ± 43.43
same,AUC value under graded distension pressures (EMG),"PI-IBS rats; 20 mg/kg i.g., 40 mmHg",319.78 ± 118.03
same,AUC value under graded distension pressures (EMG),"PI-IBS rats; 20 mg/kg i.g., 60 mmHg",470.73 ± 173.52
same,AUC value under graded distension pressures (EMG),"PI-IBS rats; 20 mg/kg i.g., 80 mmHg",725.28 ± 192.44
same,5-HT content,normal rats,4.06 ± 0.48 ng/mg
same,cytotoxicity at 100 µM,"QGP-1 cells; QGP-1, 24 h, at about 100 μM, read-out: Reduction of cell viability in comparison with the control",~50%
same,IC50,"QGP-1 cells; QGP-1, 48 h incubation",~50 µM
